Data reported in US8088772B2, “Sulfonamides and their use as a medicament” (The Genetics Company, Inc., priority 2006, dated 2012).

What was measured:
Wnt pathway = assay: Cell Assay (CA): inhibition of Wnt activity in cancer cells, Tcf reporter gene; format: cell-based; conditions: inhibition class in the Cell Assay
Text: Inhibition of Wnt Activity in Cancer Cells
The effect of β-catenin/BCL9 inhibitors identified in the ELISA-based protein-protein interaction assay on the Wnt pathway can be evaluated in a cell culture system using a reporter gene responsive to the Tcf/Lef family of transcription factors or by quantitative analysis of Wnt target genes in appropriate cell lines.
A reporter gene is a construct which comprises a readily detectable or assayable gene such β-galactosidase, green fluorescent protein, chloramphenicol acetyltransferase or luciferase, linked in cis to a transcription factor response element and a minimal promoter. Depending on the expression vectors used, this protocol can be applied, e.g. for mammalian as well as for Drosophila cell lines. For instance, colon cancer cells with constitutively active Wnt pathway like DLD-1 or SW620 (ATCC) are a well suitable system. Hereby, a Tcf-4 driven luciferase reporter plasmid (i.e. TOP-FLASH, Upstate biotechnology, New York, USA) is transiently or stably transfected into cells known in the art. Any means for introducing genetic material into cells can be used, including but not limited to infection, electroporation or transfection. For instance, to introduce DNA into DLD-1 cells, a lipofection agent like the Lipofectamine transfection reagent (Life Technologies, Inc.) can be used. By transient transfection protocols, a second reporter gene, e.g. the renilla luciferase reporter plasmid pRL-SV40 (Promega Corporation, Madison USA), needs to be co-transfected to normalize for transfection efficiency. Drugs are added to the media 24 h after trans-fection (transient transfection) or 24 h after seeding of the cells (stably transfected cells). Cell extracts are prepared 24 to 48 h later and assayed for reporter gene activity as described by the manufacturer (eg. for luciferase activity: Promega Corporation). Compounds reducing reporter gene activity more than 50% compared to solvent alone treated cells are considered as hits. In parallel, toxicity can be assessed for instance by the yellow tetrazolium salt cell proliferation assay (MTT) assay.

βCatenin-BCL9 = assay: ELISA based protein-protein interaction assay; format: binding; conditions: inhibition class of the βCatenin-BCL9 interaction
Protocol: In vitro ELISA-based Protein-protein Interaction Assay
Protein Production in Bacteria
cDNAs including the binding domains of Lgs and βCatenin were fused downstream of glutathione-S-transferase (GST) cDNA in pGEX-4T inducible bacterial expression vector (Pharmacia). Fusion proteins were produced in BL21 bacteria (e.g. Stratagene) following manufacturer's recommendation.
To isolate the produced fusions protein bacteria were lysed in sonication buffer (10 mM Tris HCl pH 8.0, 150 mM NaCl, 1 mM EDTA, 1.5% sarkosyl, 2% Triton-X-100, 1 mM DTT and protease inhibitors), followed by short sonication on ice (e.g. 3 times 20 seconds at middle power) and centrifugation. Cleared supernatants were incubated under gentle rotation with glutathione beads (Amersham Pharmacia) for 2 hrs at 4° C. Finally, beads were washed several time in washing buffer (20 mM Tris pH 8.0, 200 mM NaCl, 1 mM EDTA, 1 mM DTT, 1 mM MgCl2, 0.5% NP40), and stored in storage buffer (20 mM Tris pH 8.0, 200 mM NaCl, 1 mM EDTA, 1 mM DTT, 1 mM MgCl2, 10% glycerol, 0.5% NP40, and proteinase inhibitors). The quality of the preparations was checked by SDS-gel electrophoresis by standard methods well known by persons skilled in the art. […]

SMILES	CA (Wnt pathway)	ELISA (βCatenin-BCL9)
CS(=O)(=O)c1ccc(S(=O)(=O)NNc2ccc([N+](=O)[O-])cc2S(=O)(=O)Nc2ccccc2Cl)cc1 [TGC0011577]	1 (0-20% inhibition)	4 (61-80% inhibition)
CCN1C(=O)/C(=N\Nc2ccc([N+](=O)[O-])cc2S(=O)(=O)Nc2ccccc2Cl)c2ccccc21 [TGC0010665]	4 (61-80% inhibition)	2 (21-40% inhibition)
Cc1ncc(CO)c(/C=N/Nc2ccc([N+](=O)[O-])cc2S(=O)(=O)Nc2ccccc2Cl)c1O [TGC0010626]	4.5	3 (41-60% inhibition)
O=[N+]([O-])c1ccc(N/N=C/c2cc(Cl)cc(Cl)c2O)c(S(=O)(=O)Nc2ccccc2Cl)c1 [TGC0010527]	4.5	3 (41-60% inhibition)
O=C(O)c1ccc(CNNc2ccc([N+](=O)[O-])cc2S(=O)(=O)Nc2ccccc2Cl)cc1 [TGC0011589]	4 (61-80% inhibition)	5 (81-100% inhibition)
O=[N+]([O-])c1ccc(N/N=C/c2cccc(Oc3ccccc3)c2)c(S(=O)(=O)Nc2ccccc2Cl)c1 [TGC0010583]	4 (61-80% inhibition)	2 (21-40% inhibition)
O=[N+]([O-])c1ccc(NNS(=O)(=O)c2ccc(Cl)cc2)c(S(=O)(=O)Nc2ccccc2Cl)c1 [TGC0011576]	5 (81-100% inhibition)	3 (41-60% inhibition)
C[n+]1ccccc1/C=N/Nc1ccc([N+](=O)[O-])cc1S(=O)(=O)Nc1ccccc1Cl.[I-] [TGC0011514]	1 (0-20% inhibition)	1 (0-20% inhibition)
O=[N+]([O-])c1ccc(N/N=C/c2ccc(O)c(O)c2)c(S(=O)(=O)Nc2ccccc2Cl)c1 [TGC0008709]	4 (61-80% inhibition)	3.5
